Where two headings read alike, the source gives them in different places. Peptide text beside a SMILES is read from it. * marks the point of attachment. Stearoyl = CCCCCCCCCCCCCCCCCC(=O)*; Palmitoyl = CCCCCCCCCCCCCCCC(=O)*
What was measured:
Type in all cases: cell-based
[1] = system: HIV-1 pseudovirus, primary Env SF162; conditions: Env SF162, subtype B; mean ± SD of 3 assays in triplicate
Protocol: (§1) The inhibitory activities of inhibitors against HIV-1 pseudoviruses and replication-competent isolates were measured as described previously. Briefly, HIV-1 pseudoviruses were generated via the cotransfection of HEK293T cells with an Env-expressing plasmid and a backbone plasmid that encodes Env-defective, luciferase-expressing HIV-1 genome (pSG3Δenv). Viral stocks of replication-competent HIV-1 isolates were generated by transfecting viral molecular clones into HEK293T cells. Culture supernatants were harvested at 48 h posttransfection, and 50% tissue culture infectious doses (TCID50) in TZM-bl cells were determined. Inhibitors were prepared in 3-fold dilutions, mixed with 100 TCID50 of a virus, and then incubated for 1 h at room temperature. The mixture was added to TZM-bl cells (10^4/well), and the cells were incubated for additional 48 h at 37°C. Luciferase activity was measured as described above.

[2] = system: HIV-1 pseudovirus, primary Env TRO.11; conditions: Env TRO.11, subtype B; mean ± SD of 3 assays in triplicate
Protocol: as §1

[3] = system: HIV-1 pseudovirus, primary Env R3A; conditions: subtype B, mean ± SD of 3 assays in triplicate
Protocol: as §1

[4] = system: HIV-1 pseudovirus, primary Env B01; conditions: Env B01, subtype B'; mean ± SD of 3 assays in triplicate
Protocol: as §1

[5] = system: HIV-1 pseudovirus, primary Env CAP210.2.00.E8; conditions: Env CAP210.2.00.E8, subtype C; mean ± SD of 3 assays in triplicate
Protocol: as §1

[6] = system: HIV-1 pseudovirus, primary Env 92RW020; conditions: Env 92RW020, subtype A; mean ± SD of 3 assays in triplicate
Protocol: as §1

[7] = system: HIV-1 pseudovirus, primary Env 398-F1_F6_20; conditions: Env 398-F1_F6_20, subtype A; mean ± SD of 3 assays in triplicate
Protocol: as §1

[8] = system: HIV-1 pseudovirus, primary Env 43–22; conditions: Env 43–22, subtype B'; mean ± SD of 3 assays in triplicate
Protocol: as §1

[9] = system: HIV-1 pseudovirus, primary Env CH070.1; conditions: Env CH070.1, subtype B/C; mean ± SD of 3 assays in triplicate
Protocol: as §1

[10] = system: HIV-1 pseudovirus, primary Env CNE8; conditions: Env CNE8, subtype A/E; mean ± SD of 3 assays in triplicate
Protocol: as §1

HIV-1 89.6 = conditions: Table 2; 89.6, subtype B, R5X4; mean ± SD of 3 assays in triplicate
Protocol: as §1

[11] = system: HIV-1 pseudovirus, primary Env GX11.13; conditions: Env GX11.13, subtype A/E; mean ± SD of 3 assays in triplicate
Protocol: as §1

[12] = system: HIV-1 pseudovirus, primary Env ZM53M.PB12; conditions: Env ZM53M.PB12, subtype C; mean ± SD of 3 assays in triplicate
Protocol: as §1

[13] = system: HIV-1 pseudovirus, primary Env AE03; conditions: Env AE03, subtype A/E; mean ± SD of 3 assays in triplicate
Protocol: as §1

[14] = system: replication-competent HIV-1 isolates; conditions: mean of the ten isolates of Table 2; read-out: Mean IC50 over the replication-competent isolates
Protocol: as §1

[15] = system: HIV-1 pseudovirus, primary Env X2278_C2_B6; conditions: Env X2278_C2_B6, subtype B; mean ± SD of 3 assays in triplicate
Protocol: as §1

[16] = system: HIV-1 pseudovirus, primary Env AC10.0.29; conditions: Env AC10.0.29, subtype B; mean ± SD of 3 assays in triplicate
Protocol: as §1

[17] = system: HIV-1 pseudovirus, primary Env CH110; conditions: Env CH110, subtype B/C; mean ± SD of 3 assays in triplicate
Protocol: as §1

[18] = system: HIV-1 pseudovirus, primary Env SHX335.24; conditions: Env SHX335.24, subtype A/E; mean ± SD of 3 assays in triplicate
Protocol: as §1

HIV-1HXB2 Env = molecular target: T1, HIV-1HXB2 Env (Human immunodeficiency virus type 1 group M subtype B, UniProt P04578); assay: HIV-1HXB2 Env-mediated cell-cell fusion (HL2/3 effector, TZM-bl target, luciferase reporter)
T1 construct: HL2/3 cells, which stably express high levels of Env, Gag, Tat, Rev, and Nef proteins of the integrated HIV-1 molecular clone HXB2/3gpt; host or cells: HL2/3 cells (effector), cocultured with TZM-bl target cells
T1 sequence (P04578 512-856): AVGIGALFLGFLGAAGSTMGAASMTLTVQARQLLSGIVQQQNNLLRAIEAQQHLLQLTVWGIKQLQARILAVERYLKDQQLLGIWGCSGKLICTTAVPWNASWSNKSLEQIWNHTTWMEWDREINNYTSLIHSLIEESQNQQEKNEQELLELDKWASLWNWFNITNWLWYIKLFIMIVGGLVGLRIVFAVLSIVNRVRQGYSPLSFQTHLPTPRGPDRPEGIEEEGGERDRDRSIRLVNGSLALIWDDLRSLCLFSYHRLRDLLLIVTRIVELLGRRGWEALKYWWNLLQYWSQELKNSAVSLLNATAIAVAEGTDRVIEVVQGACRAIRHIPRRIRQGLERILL
Protocol: The inhibitory activities of inhibitors on HIV-1HXB2 Env-mediated cell-cell fusion were determined by a reporter gene assay based on the activation of an HIV LTR-driven luciferase cassette in TZM-bl cells (target) by HIV-1 tat from HL2/3 cells (effector). Briefly, 1 x 10^4/well of TZM-bl cells were plated in 96-well plates and incubated at 37°C overnight. Then, 3 x 10^4/well of HL2/3 cells were cocultured with target cells for 6 h at 37°C in the presence or absence of an inhibitor at graded concentrations. Luciferase activity was measured using luciferase assay reagents and a Luminescence Counter (Promega, Madison, Wisconsin, USA).

[19] = system: HIV-1NL4-3(D36G) pseudovirus
Protocol: as §1, with “Culture supernatants were harvested at 48 h posttransfection, and 50% tissue culture infectious doses (TCID50) in TZM-bl cells were determined.” left out, “The mixture was added to TZM-bl cells (10^4/well), and the cells were incubated for additional 48 h at 37°C.” left out

[20] = Fig 1, NL4-3(D36G) pseudovirus, mean ± SD of three assays in triplicate, read-out: Anti-HIV activity (IC50, pM) NL4-3 entry
[21] = Table 4, NL4-3D36G, T-20 sensitive, mean ± SD of 3 assays in triplicate, value in parentheses behind the bound, read-out: IC50

Row | Molecule | IC50 [1] [pM] | IC50 [2] [pM] | IC50 [3] [pM] | IC50 [4] [pM] | IC50 [5] [pM] | IC50 [6] [pM] | IC50 [7] [pM] | IC50 [8] [pM] | IC50 [9] [pM] | IC50 [10] [pM] | IC50 (HIV-1 89.6) [pM] | IC50 [11] [pM] | IC50 [12] [pM] | IC50 [13] [pM] | IC50 [14] [pM] | IC50 [15] [pM] | IC50 [16] [pM] | IC50 [17] [pM] | IC50 [18] [pM] | IC50 [19, 20] [pM] | further results
1 | CCCCCCCCCCCCCCCC(=O)NCCCC[C@H](NC(=O)[C@H](CCC(=O)O)NC(=O)[C@H](CC(C)C)NC(=O)[C@H](CCCCN)NC(=O)[C@H](CCCCN)NC(=O)[C@H](CC(C)C)NC(=O)[C@H](CCC(=O)O)NC(=O)[C@H](CCC(=O)O)NC(=O)[C@H](CCC(=O)O)NC(=O)[C@H](CC(N)=O)NC(=O)[C@H](CCCCN)NC(=O)[C@H](CCCCN)NC(=O)[C@H](CCC(N)=O)NC(=O)[C@H](CCC(N)=O)NC(=O)[C@H](CCC(=O)O)NC(=O)[C@H](CCC(=O)O)NC(=O)[C@H](C)NC(=O)[C@H](CCCCN)NC(=O)[C@H](CCCCN)NC(=O)[C@H](CC(C)C)NC(=O)[C@H](CC(C)C)NC(=O)[C@H](CCC(=O)O)NC(=O)[C@H](CCC(=O)O)NC(=O)[C@@H](NC(=O)[C@H](CCCCN)NC(=O)[C@H](CCC(N)=O)NC(=O)[C@H](CCC(=O)O)NC(=O)[C@H](Cc1c[nH]c2ccccc12)NC(C)=O)[C@@H](C)CC)C(N)=O [LP-52, reference compound] (Ac-WEQKIEELLKKAEEQQKKNEEELKKLEK(Palmitoyl)-NH2) | 26.4 ± 3.81 | 20.6 ± 2.67 | 9.22 ± 1.9 | 7.06 ± 1.16 | 39.2 ± 3.57 | 39.3 ± 1.51 | 9.48 ± 1.74 | 7.83 ± 0.74 | 27.6 ± 3.33 | 4.97 ± 1.31 | 17.5 ± 2.05 | 8.7 ± 0.88 | 26.9 ± 3.04 | 10.9 ± 1.89 | 16.9 | 1.17 ± 0.22 | 9.71 ± 0.81 | 7.98 ± 1.3 | 18.9 ± 0.34 | 6.12 ± 0.25 | IC50 (HIV-1HXB2 Env): 18.7 ± 3.01 pM
2 | CCCCCCCCCCCCCCCCCC(=O)NCCCC[C@H](NC(=O)[C@H](CCC(=O)O)NC(=O)[C@H](CC(C)C)NC(=O)[C@H](CCCCN)NC(=O)[C@H](CCCCN)NC(=O)[C@H](CC(C)C)NC(=O)[C@H](CCC(=O)O)NC(=O)[C@H](CCC(=O)O)NC(=O)[C@H](CCC(=O)O)NC(=O)[C@H](CC(N)=O)NC(=O)[C@H](CCCCN)NC(=O)[C@H](CCCCN)NC(=O)[C@H](CCC(N)=O)NC(=O)[C@H](CCC(N)=O)NC(=O)[C@H](CCC(=O)O)NC(=O)[C@H](CCC(=O)O)NC(=O)[C@H](C)NC(=O)[C@H](CCCCN)NC(=O)[C@H](CCCCN)NC(=O)[C@H](CC(C)C)NC(=O)[C@H](CC(C)C)NC(=O)[C@H](CCC(=O)O)NC(=O)[C@H](CCC(=O)O)NC(=O)[C@@H](NC(=O)[C@H](CCCCN)NC(=O)[C@H](CCC(N)=O)NC(=O)[C@H](CCC(=O)O)NC(=O)[C@H](Cc1c[nH]c2ccccc12)NC(C)=O)[C@@H](C)CC)C(N)=O [LP-80] (Ac-WEQKIEELLKKAEEQQKKNEEELKKLEK(Stearoyl)-NH2) | 3.12 ± 0.37 | 3.92 ± 0.26 | 6.34 ± 0.65 | 3.49 ± 0.4 | 10.6 ± 2.56 | 9.74 ± 0.93 | 1.49 ± 0.26 | 3.24 ± 0.27 | 28.5 ± 0.63 | 3.56 ± 0.7 | 5.27 ± 0.3 | 4.85 ± 0.99 | 8.62 ± 0.74 | 3.44 ± 0.83 | 7.09 |  | 5.01 ± 0.93 | 3.3 ± 0.29 | 2.83 ± 0.66 | 1.62 | IC50 (HIV-1HXB2 Env): 12.6 pM; IC50 [19, 21]: < 10 pM
3 | CCCCCCCCCCCCCCCCCC(=O)NCCCC[C@H](NC(=O)[C@H](CCC(=O)O)NC(=O)[C@H](CC(C)C)NC(=O)[C@H](CCCCN)NC(=O)[C@H](CCCCN)NC(=O)[C@H](CC(C)C)NC(=O)[C@H](CCC(=O)O)NC(=O)[C@H](CCC(=O)O)NC(=O)[C@H](CCC(=O)O)NC(=O)[C@H](CC(N)=O)NC(=O)[C@H](CCCCN)NC(=O)[C@H](CCCCN)NC(=O)[C@H](CCC(N)=O)NC(=O)[C@H](CCC(N)=O)NC(=O)[C@H](CCC(=O)O)NC(=O)[C@H](CCC(=O)O)NC(=O)[C@H](C)NC(=O)[C@H](CCCCN)NC(=O)[C@H](CCCCN)NC(=O)[C@H](CC(C)C)NC(=O)[C@H](CC(C)C)NC(=O)[C@H](CCC(=O)O)NC(=O)[C@H](CCC(=O)O)NC(=O)[C@@H](NC(C)=O)[C@@H](C)CC)C(N)=O [LP-90] (Ac-IEELLKKAEEQQKKNEEELKKLEK(Stearoyl)-NH2) | 4.82 ± 0.91 | 8.95 ± 2.3 |  | 17.9 ± 1.58 | 29.1 ± 1.33 | 15.1 ± 0.62 | 6.32 ± 0.46 | 3.9 ± 1.33 | 31.7 ± 2.04 | 22.5 ± 2.6 | 57.4 ± 10.9 | 24.8 ± 1.59 | 8.81 ± 0.46 | 14.1 ± 4.17 | 23.7 | 1.04 ± 0.22 | 4.42 ± 0.28 | 7.85 ± 1.22 | 3.01 ± 0.2 | 3.55 | IC50 (HIV-1HXB2 Env): 16.3 pM; IC50 [19, 21]: < 10 pM
4 | enfuvirtide [Lipopeptide T-20, reference compound] | 17600 ± 1030 | 7050 ± 1330 | 6880 ± 1120 | 84400 ± 3690 | 123000 ± 4770 | 3240 ± 232 | 19400 ± 1710 | 23200 ± 592 | 165000 ± 28300 | 24800 ± 1880 | 15400 ± 5880 | 24900 ± 2210 | 22700 ± 943 | 12380 ± 109 | 15300 | 5660 ± 74.4 | 2840 ± 103 | 31000 ± 2670 | 40600 ± 1420 | 8560 ± 1050 | IC50 [19, 21]: 8770 ± 1020 pM

Source: PMC6375636, “Monotherapy with a low-dose lipopeptide HIV fusion inhibitor maintains long-term viral suppression in rhesus macaques” (PLoS Pathogens, 2019)
